The source of these data is US20130017548A1, “SCREENING METHOD” (AJINOMOTO, INC., priority 2009, published 2013).

For data set [1], the target named is T1, PIKfyve (Homo sapiens, UniProt Q9Y2I7).
T1 construct: the supernatant resulting from centrifugation at 100,000×g for 60 minutes was used as a cell extract; endogenous in cells; host or cells: Jurkat (human T-lymphocyte line), cell extract
Kind of data set: Assessment of lipid kinase inhibitory activity (competition with biotinyl acyl phosphate ATP derivative in Jurkat cell extract, LC-MS/MS). The format is binding. Particulars: test compound 30 nM or 300 nM, FIG. 1. The procedure:
Lipid kinase inhibitory activity was assessed according to the method described in Biochemistry 2007, 46, 350-358. Jurkat cell derived from human lymphocyte was suspended in a lysis buffer (20 mM Hepes, 150 mM NaCl, 0.1% TritonX-100, 20 mM MnCl2) by sonication, and the supernatant resulting from centrifugation at 100,000×g for 60 minutes was used as a cell extract. To the cell extract (5 mg/mL), a test compound (30 nM or 300 nM) or a solvent alone was added and incubated for 5 minutes. Then, an ATP derivative labeled with biotinyl acyl phosphate (20 μM) was added and incubated for 5 minutes, and the resultant was further subjected to digestion with trypsin. […] The biotin-labeled peptide was analyzed by LC-MS/MS for sequence identification and measurement of the elution amount of the lipid-kinase-derived peptide so as to assess competitive inhibitory activity of the test compound for the binding of the ATP derivative to various lipid kinases. […]
Using this assessment system, the inhibitory activity of the test compound for other lipid kinases was assessed (other lipid kinases may be commercially available or may be produced according to a method described in a known document) and the results thereof are shown in FIG. 1.

In data set [2] the test system is mouse enterocolitis model. Kind of data set: Inflammation suppressive action in mouse IL-10-/- cell transfer enterocolitis model. The format is in vivo. Particulars: FIG. 3. On the procedure: A method for producing a mouse IL-10^−/− cell transfer enterocolitis model is described, for example, in Gastroenterology. 2009 February; 136(2):564-74.e2. Epub 2008 Oct. 7.
Measurement of an intestine weight as a drug efficacy indicator was carried out according to the following method. On the last day for autopsy, large intestine from the anus to immediately before the cecum was removed. The content of the intestine was washed with physiological saline, water was roughly removed and then the weight was measured.
Results from the assessment of the inflammation suppressive action of Compound 1 in mouse enterocolitis model using this assessment system are shown in FIG. 3.

In data set [3] the test system is IL-12 and IL-23 productions. Particulars: productions strongly induced by INF-γ; cited from earlier work.
Data set [4] concerns IL-12b expression in mouse peritoneal macrophage. Nature of the data set: IL-12-production suppressive action by PIKfyve and Vac14 knockdown (siRNA, quantitative PCR). Particulars: siRNA 1 μM, mouse interferon-γ and SAC stimulation 3.5 hours, normalized to GAPDH; FIG. 4. The format is cell-based. The procedure:
Assessment of the effects of knockdown of PIKfyve and Vac14 expressed in mouse peritoneal macrophage using siRNA method was carried out as described below. Mouse peritoneal macrophage was isolated according to the method described in Laboratory Test Example 2, and subsequently suspended in Nucleofection solution attached to Mouse macrophage nucleofection kit (Lonza) to give 3.3×10^6 cells/mL. siRNA was added to the cell suspension to a final concentration of 1 μM and subjected to Nucleofection according to the attached protocol. The following siRNAs were used. […]
A FBS-free RPMI1640 medium was used for culture at 37° C. in the presence of 5% CO2 for 2 hours and then the medium was replaced by 0.5 ml of Dulbecco's MEM medium containing RPMI 1640 medium supplemented with 3% FBS for culture at 37° C. in the presence of 5% CO2 for 4 hours. Subsequently, 3.3 ng/mL mouse interferon-γ and 0.0017% (v/v) SAC were added and cultured for 3.5 hours and then the expression level of cytokine mRNA in the cell was measured.
Extraction and purification of total RNA from the mouse peritoneal macrophage was carried out using RNeasy midi kit (Qiagen 75144) according to the attached protocol. […] The resultant removed of the remaining […] was used as cDNA for quantitative PCR. […]

T1 sequence (Q9Y2I7 whole entry): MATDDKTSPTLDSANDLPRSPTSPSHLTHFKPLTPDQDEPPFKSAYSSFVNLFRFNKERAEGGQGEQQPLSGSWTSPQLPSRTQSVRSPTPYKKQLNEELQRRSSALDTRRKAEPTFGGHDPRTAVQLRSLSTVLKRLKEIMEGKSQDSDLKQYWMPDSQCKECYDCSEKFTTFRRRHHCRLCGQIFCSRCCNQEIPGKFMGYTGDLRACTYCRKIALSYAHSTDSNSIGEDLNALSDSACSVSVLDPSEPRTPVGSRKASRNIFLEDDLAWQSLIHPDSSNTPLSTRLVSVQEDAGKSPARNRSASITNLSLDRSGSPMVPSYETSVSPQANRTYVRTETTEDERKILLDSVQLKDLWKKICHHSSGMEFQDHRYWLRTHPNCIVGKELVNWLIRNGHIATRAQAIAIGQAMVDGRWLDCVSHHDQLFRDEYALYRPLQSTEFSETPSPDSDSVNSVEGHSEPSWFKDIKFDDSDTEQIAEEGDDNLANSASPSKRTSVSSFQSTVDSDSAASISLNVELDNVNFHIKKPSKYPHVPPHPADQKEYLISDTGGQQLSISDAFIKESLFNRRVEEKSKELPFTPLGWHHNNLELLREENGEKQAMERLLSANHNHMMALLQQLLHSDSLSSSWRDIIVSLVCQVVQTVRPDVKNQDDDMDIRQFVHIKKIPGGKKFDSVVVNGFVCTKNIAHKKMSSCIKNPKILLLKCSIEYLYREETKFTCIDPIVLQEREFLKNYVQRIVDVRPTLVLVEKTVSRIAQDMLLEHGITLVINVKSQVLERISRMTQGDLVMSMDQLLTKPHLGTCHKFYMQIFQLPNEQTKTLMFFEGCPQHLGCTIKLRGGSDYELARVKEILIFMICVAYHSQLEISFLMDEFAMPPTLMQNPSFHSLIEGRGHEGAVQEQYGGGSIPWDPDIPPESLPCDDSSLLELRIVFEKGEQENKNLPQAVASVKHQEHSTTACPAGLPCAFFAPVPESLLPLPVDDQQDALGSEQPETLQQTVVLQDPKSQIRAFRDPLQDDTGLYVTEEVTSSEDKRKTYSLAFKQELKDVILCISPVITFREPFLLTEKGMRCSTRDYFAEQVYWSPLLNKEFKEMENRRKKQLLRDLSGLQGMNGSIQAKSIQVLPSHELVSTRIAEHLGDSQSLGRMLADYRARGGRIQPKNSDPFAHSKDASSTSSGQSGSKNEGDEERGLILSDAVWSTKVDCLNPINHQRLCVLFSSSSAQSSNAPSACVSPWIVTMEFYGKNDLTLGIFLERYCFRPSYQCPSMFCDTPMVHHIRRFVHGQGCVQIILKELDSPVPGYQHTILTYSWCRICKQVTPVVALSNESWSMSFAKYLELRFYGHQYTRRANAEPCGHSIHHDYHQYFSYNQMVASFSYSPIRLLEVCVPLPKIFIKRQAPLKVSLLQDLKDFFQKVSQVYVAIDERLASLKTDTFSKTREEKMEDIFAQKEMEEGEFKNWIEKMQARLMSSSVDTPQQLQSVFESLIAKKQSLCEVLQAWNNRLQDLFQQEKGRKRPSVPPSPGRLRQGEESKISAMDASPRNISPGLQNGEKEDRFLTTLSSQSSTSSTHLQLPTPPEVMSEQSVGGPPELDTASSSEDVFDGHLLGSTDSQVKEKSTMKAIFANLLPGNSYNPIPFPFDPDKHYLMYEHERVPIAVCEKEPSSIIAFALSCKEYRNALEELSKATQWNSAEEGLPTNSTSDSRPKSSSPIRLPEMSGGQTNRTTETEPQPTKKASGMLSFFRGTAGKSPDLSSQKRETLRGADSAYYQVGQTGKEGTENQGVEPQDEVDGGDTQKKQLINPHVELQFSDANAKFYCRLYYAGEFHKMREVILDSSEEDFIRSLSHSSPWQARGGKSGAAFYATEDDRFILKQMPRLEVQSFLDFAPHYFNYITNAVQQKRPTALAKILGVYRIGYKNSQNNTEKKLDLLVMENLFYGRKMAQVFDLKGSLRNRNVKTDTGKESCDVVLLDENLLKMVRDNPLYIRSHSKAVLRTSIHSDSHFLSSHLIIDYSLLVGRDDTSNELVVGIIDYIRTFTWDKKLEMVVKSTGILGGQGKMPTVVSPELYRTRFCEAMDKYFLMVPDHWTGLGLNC

In the case of `Cc1cccc(C=NNc2cc(N3CCOCC3)n3nc(-c4ccncc4)cc3n2)c1` [Compound 1, N-(3-METHYL-BENZYLIDENE)-N′-(7-MORPHOLINE-4-YL-2-PYRIDINE-4-YL-PYRAZOLO[1,5-A]PYRIMIDINE-5-YL)-HYDRAZINE], the “inhibitory activity against various lipid kinases (selectivity)” value in data set [1] is “inhibitory activity selective to PIKfyve”. In data set [2] (3, 10, 30 mg/kg, increase by IL-10-/- cell transfer), the “weight of the large intestine” value is reported as “suppressed dependent on the dosage”. For the same compound, in data set [2] (administration group of 30 mg/kg, once a day), the “suppressive action on large intestine weight” value was “Significant suppressive action”.

Take `C(=NNc1cc(N2CCOCC2)n2nc(-c3ccncc3)cc2n1)c1ccc2cc[nH]c2c1` [Compound 2, N-(1H-INDOLE-6-YLMETHYLENE)-N′-(7-MORPHOLINE-4-YL-2-PYRIDINE-4-YL-PYRAZOLO[1,5-A]PYRIMIDINE-5-YL)-HYDRAZINE]: in data set [1], the “inhibitory activity against various lipid kinases (selectivity)” value was “inhibitory activity selective to PIKfyve”. Consider `O=C1CCC(N2C(=O)c3ccccc3C2=O)C(=O)N1` (stereo not drawn) [thalidomide], for which the “suppression of IL-12 and IL-23 productions” value in data set [3] is “cannot sufficiently suppress”. For the compound “Vac14 siRNA: Silencer Select Pre-designed siRNA (Sense SEQ ID NO: 11, Antisense SEQ ID NO:12, Ambion, s107929) as Vac14 siRNA (sense GAUUUACUCCAACAACCAATT; antisense UUGGUUGUUGGAGUAAAUCCT; chemistry not given here)”, the “IL-12b expression (fold-change over basal)” value in data set [4] is “significantly suppressed”.
